Laboratory results taken from patent US20060069132A1, “Azolecarboxamide herbicides” (priority 2004, published 2006).

Assays:
[1] = tested on: annual blugrass; experiment: Test F pre-/postemergence herbicide test; format: in vivo, Poa annua
Description: (§1) Seeds of plant species selected from annual blugrass (Poa annua L.), blackgrass (Alopecurus myosuroides Huds.), catchweed bedstraw (Gallium aparine L.), common chickweed (Stellaria media (L.) Vill./Cyr.), downy bromegrass (Bromus tectorum L.), green foxtail (Setaria viridis (L.) Beauv.), Italian ryegrass (Lolium multiflorum Lam.), kochia (Kochia scoparia (L.). Schrad.), lambsquarters (Chenopodium album L.), littleseed canarygrass (Phalaris minor Retz.), pigweed (Amaranthus retroflexus L.), Russian thistle (Salsola kali L. ssp. Ruthenica (Iljin) Soo), wild buckwheat (Polygonum convolvulus L.), wild mustard (Sinapis arvensis L.), wild oat (Avena fatua L.), windgrass (Apera spica-venti (L.) Beauv.), winter barley (Hordeum vulgare L.), and wheat (Triticum aestivum L.) were planted and treated preemergence with test chemicals formulated in a non-phytotoxic solvent mixture which included a surfactant.
(§2) At the same time, plants selected from these crop and weed species were treated with postemergence applications of some of the test chemicals formulated in the same manner. Plants ranged in height from 2 to 18 cm (1- to 4-leaf stage) for postemergence treatments. Treated plants and controls were maintained in a greenhouse for 12 to 14 days, after which time all species were compared to controls and visually evaluated. Plant response ratings, summarized in Table F, are based on a scale of 0 to 100 where 0 is no effect and 100 is complete control. A dash (-) response means no test result.

[2] = tested on: wheat; experiment: Test F pre-/postemergence herbicide test; format: in vivo, Triticum aestivum
Description: as §1, §2

[3] = tested on: blackgrass; experiment: Test F pre-/postemergence herbicide test; format: in vivo, Alopecurus myosuroides
Description: as §1, §2

[4] = tested on: kochia; experiment: Test E pre-/postemergence herbicide test; format: in vivo, Kochia scoparia; settings: Preemergence
Description: Seeds of plant species selected from bipinnate beggarticks (Bidens bipinnata L.), hairy beggarticks (Bidens radiata Thuill.), bermudagrass (Cynodon dactylon (L.) Pers.), Surinam grass (Urochloa decumbens (Staph) R. D. Webster, previously named Brachiaria decumbens Stapf), large crabgrass (Digitaria sanguinalis (L.) Scop.), green foxtail (Setaria viridis (L.) P. Beauv.), goosegrass (Eleusine indica (L.) Gaertn.), johnsongrass (Sorghum halepense (L.) Pers.), kochia (Kochia scoparia (L.) Schrad.), pitted morningglory (Ipomoea lacunosa L.), purple nutsedge (Cyperus rotundus L.), common ragweed (Ambrosia elatior L.), mustard (Brassica nigra (L.) W. D. J. Koch), guineagrass (Panicum maximum Jacq.), dallisgrass (Paspalum dilatatum Poir.), barnyardgrass (Echinochloa crus-galli (L). P. Beauv.), southern sandbur (Cenchrus echinatus L.), common sowthistle (Sonchus oleraceous L.), prickly sida (Sida spinosa L.), Italian ryegrass (Lolium multiflorum Lam.), common purslane (Portulaca oleracea L.), broadleaf signalgrass (Brachiaria platyphylla (Griseb.) Nash), common groundsel (Senecio vulgaris L.), common chickweed (Stellaria media (L.) Vill/Cyr.), tropical spiderwort (Commelina benghalensis L.), annual bluegrass (Poa annua L.), downy bromegrass (Bromus tectorum L.), itchgrass (Rottboellia cochinchinensis (L.) L.f.), quackgrass (Elytrigia repens (L.) Nevski), Canada horseweed (Erigeron Canadensis L.), field bindweed (Convolvulus arvensis L.), spotted spurge (Euphorbia maculata L.), common mallow (Malva sylvestris (=s silvestris) L.), and Russian thistle (Salsola kali L. ssp. Ruthenica (Iljin) Soo) were planted and treated preemergence with test chemicals formulated in a non-phytotoxic solvent mixture which included a surfactant.
as §2, with “these” for “these crop and”, “E,” for “F,”

[5] = tested on: pigweed; experiment: Test F pre-/postemergence herbicide test; format: in vivo, Amaranthus retroflexus
Description: as §1, §2

[6] = tested on: winter barley; experiment: Test F pre-/postemergence herbicide test; format: in vivo, Hordeum vulgare
Description: as §1, §2

[7] = tested on: downy bromegrass; experiment: Test F pre-/postemergence herbicide test; format: in vivo, Bromus tectorum
Description: as §1, §2

CCn1nc(C(C)(C)C)cc1C(=O)Nc1cccc(C(N)=O)n1 [Compound 162, 6-[[[3-(1,1-dimethylethyl)-1-ethyl-1H-pyrazol-5-yl]carbonyl]amino]-2-pyridinecarboxamide]
100: Plant response rating (0-100), Bluegrass ([1]; Postemergence, 500 g ai/ha) | Plant response rating (0-100), Bluegrass ([1]; Preemergence, 62 g ai/ha) | Plant response rating (0-100), Bluegrass ([1]; Preemergence, 125 g ai/ha) | Plant response rating (0-100), Bluegrass ([1]; Preemergence, 250 g ai/ha) | Plant response rating (0-100), Bluegrass ([1]; Preemergence, 500 g ai/ha) | Plant response rating (0-100), Wheat ([2]; Preemergence, 125 g ai/ha) | Plant response rating (0-100), Wheat ([2]; Preemergence, 250 g ai/ha) | Plant response rating (0-100), Wheat ([2]; Preemergence, 500 g ai/ha) | Plant response rating (0-100), Blackgrass ([3]; Postemergence, 250 g ai/ha) | Plant response rating (0-100), Blackgrass ([3]; Postemergence, 500 g ai/ha) | Plant response rating (0-100), Blackgrass ([3]; Preemergence, 125 g ai/ha) | Plant response rating (0-100), Blackgrass ([3]; Preemergence, 250 g ai/ha) | Plant response rating (0-100), Blackgrass ([3]; Preemergence, 500 g ai/ha) | Plant response rating (0-100), Pigweed ([5]; Postemergence, 250 g ai/ha) | Plant response rating (0-100), Pigweed ([5]; Postemergence, 500 g ai/ha) | Plant response rating (0-100), Pigweed ([5]; Preemergence, 125 g ai/ha) | Plant response rating (0-100), Pigweed ([5]; Preemergence, 250 g ai/ha) | Plant response rating (0-100), Pigweed ([5]; Preemergence, 500 g ai/ha) | Plant response rating (0-100), Barley, Winter ([6]; Preemergence, 125 g ai/ha) | Plant response rating (0-100), Barley, Winter ([6]; Preemergence, 250 g ai/ha) | Plant response rating (0-100), Barley, Winter ([6]; Preemergence, 500 g ai/ha) | Plant response rating (0-100), Bromegrass, Downy ([7]; Preemergence, 125 g ai/ha)
90: Plant response rating (0-100), Bluegrass ([1]; Postemergence, 250 g ai/ha) | Plant response rating (0-100), Blackgrass ([3]; Preemergence, 62 g ai/ha) | Plant response rating (0-100), Pigweed ([5]; Postemergence, 125 g ai/ha) | Plant response rating (0-100), Pigweed ([5]; Preemergence, 62 g ai/ha) | Plant response rating (0-100), Bromegrass, Downy ([7]; Postemergence, 500 g ai/ha)
40: Plant response rating (0-100), Wheat ([2]; Postemergence, 125 g ai/ha) | Plant response rating (0-100), Barley, Winter ([6]; Postemergence, 62 g ai/ha)
20: Plant response rating (0-100), Wheat ([2]; Postemergence, 62 g ai/ha)
50: Plant response rating (0-100), Wheat ([2]; Postemergence, 250 g ai/ha) | Plant response rating (0-100), Barley, Winter ([6]; Postemergence, 125 g ai/ha) | Plant response rating (0-100), Bromegrass, Downy ([7]; Postemergence, 62 g ai/ha) | Plant response rating (0-100), Bromegrass, Downy ([7]; Postemergence, 125 g ai/ha)
80: Plant response rating (0-100), Blackgrass ([3]; Postemergence, 125 g ai/ha) | Plant response rating (0-100), Barley, Winter ([6]; Postemergence, 250 g ai/ha) | Plant response rating (0-100), Barley, Winter ([6]; Postemergence, 500 g ai/ha) | Plant response rating (0-100), Bromegrass, Downy ([7]; Postemergence, 250 g ai/ha)
60: Plant response rating (0-100), Bluegrass ([1]; Postemergence, 62 g ai/ha) | Plant response rating (0-100), Bluegrass ([1]; Postemergence, 125 g ai/ha) | Plant response rating (0-100), Wheat ([2]; Preemergence, 62 g ai/ha) | Plant response rating, Kochia ([4]; 62 g ai/ha, scale 0 to 100)
95: Plant response rating, Kochia ([4]; 250 g ai/ha, scale 0 (no effect) to 100 (complete control)) | Plant response rating, Kochia ([4]; 500 g ai/ha, scale 0 (no effect) to 100 (complete control))
70: Plant response rating (0-100), Wheat ([2]; Postemergence, 500 g ai/ha) | Plant response rating (0-100), Blackgrass ([3]; Postemergence, 62 g ai/ha) | Plant response rating, Kochia ([4]; 125 g ai/ha, scale 0 to 100) | Plant response rating (0-100), Pigweed ([5]; Postemergence, 62 g ai/ha) | Plant response rating (0-100), Barley, Winter ([6]; Preemergence, 62 g ai/ha) | Plant response rating (0-100), Bromegrass, Downy ([7]; Preemergence, 62 g ai/ha)
